Test results as given in patent US9643999B2 (Bristol-Myers Squibb Company, priority 2012, dated 2017).
Where two headings read alike, the source gives them in different places.

How the values were obtained:
HCV genotype 1a replicon = assay: HCV replicon luciferase reporter assay, genotype 1a (LE_1a); assay type: cell-based; conditions: Hepatitis C virus, 72 h, HUH-7 cells, genotype 1a H77 replicon, 3 days incubation, Renilla luciferase
Source text: (§1) An HCV replicon whole cell system was established as described by Lohmann V, Korner F, Koch J, Herian U, Theilmann L, Bartenschlager R., Science 285(5424):110-3 (1999) and modified to introduce a luciferase reporter, as first described by Krieger et al (Krieger N, Lohmann V, and Bartenschlager R, J. Virol. 75(10):4614-4624 (2001)). cDNA encoding a humanized form of the Renilla luciferase gene and a linker sequence fused directly to the 3′-end of the luciferase gene were introduced into the replicon construct using an Asc1 restriction site located in core, directly upstream of the neomycin marker gene. The adaptive mutation at position 1179 (serine to isoleucine) was also introduced (Blight K J, Kolykhalov, A A, Rice, C M, Science 290(5498):1972-1974). A stable cell line constitutively expressing this HCV replicon construct was generated by first linearizing plasmid DNAs with ScaI. RNA transcripts were synthesized in vitro using the T7 MegaScript transcription kit (Ambion, Austin, Tex.) according to manufacturer's directions. In vitro transcripts of the cDNA were transfected into the human hepatoma cell line, HUH-7. […] Resulting cell lines were characterized for positive and negative strand RNA production and protein production over time.
A stable HCV replicon luciferase reporter cell line representing the genotype 1a H77 strain (Yanagi M, Purcell R H, Emerson S U, et al. Transcripts from a single full-length cDNA clone of hepatitis C virus are infectious when directly transfected into the liver of a chimpanzee. Proc Natl Acad Sci USA 1997; 94(16):8738-8743) was generated as described previously for the genotype 1b(Con1) replicon luciferase cell line. The replicon construct was modified by introducing mutations were introduced into the genes encoding the NS3 helicase domain (proline replaced by leucine at position 1496) and NS5A (serine to isoleucine at position 2204) to improve replication in cell culture.
(§2) HCV replicon luciferase assays were developed to monitor the inhibitory effects of compounds described in the disclosure on HCV genotypes 1a and 1b viral replication. HUH-7 cells, constitutively expressing the HCV replicon, were grown in Dulbecco's Modified Eagle Media (DMEM) (Gibco-BRL) containing 10% Fetal calf serum (FCS) (Sigma) and 1 mg/mL G418 (Gibco-BRL). Compounds were serially diluted 3 folds in DMSO for a twenty-point titration and subsequently transferred to sterile 384-well tissue-culture treated plates (Corning cat #3571). The plates were then seeded with 50 μL of cells at a density of 3.0×10^3 cells/well in DMEM containing 4% FCS (final DMSO concentration at 0.5%). After 3 days incubation at 37° C., cells were analyzed for Renilla Luciferase activity using the EnduRen as substrate (Promega cat #E6485). The EnduRen substrate was diluted in DMEM and then added to the plates to a final concentration of 7.5 μM. The plates were incubated for 2 hrs at 37° C. and then read immediately for 30 seconds with Viewlux Imager (PerkinElmer) using a luminescence program. To assess cytotoxicity of compounds, CC50 values were generated by multiplexing the EnduRen-containing plates with Cell Titer-Blue (Promega, cat #G8082). Cell-Titer Blue (3 μL) was added to each well and incubated for 8 hrs at 37° C. The fluorescence signal from each well was read, with an excitation wavelength at 525/10 nm and an emission wavelength of 598/10 nm, using the Viewlux Imager.
(§3) The EC50 values for compounds were calculated by using a four-parameter logistic equation: y=A+((B−A)/(1+((C/x)^D))), where A and B denotes minimal and maximal % inhibition, respectively, C is the EC50, D is the hill slope and x represents compound concentration.

HCV genotype 1b replicon = assay: HCV replicon luciferase reporter assay, genotype 1b (LE_1b); assay type: cell-based; conditions: Hepatitis C virus, 72 h, HUH-7 cells, genotype 1b (Con1) replicon, 3 days incubation, Renilla luciferase
Source text: as §1, with “time. […]” for “time.”
as §2, §3

| Structure (SMILES) | EC50 (HCV genotype 1a replicon; read-out: LE_1a (EC50)) [nM] | EC50 (HCV genotype 1a replicon; read-out: LE_1a (EC50, range)) [nM] | EC50 (HCV genotype 1b replicon; read-out: LE_1b (EC50)) [nM] | EC50 (HCV genotype 1b replicon; read-out: LE_1b (EC50, range)) [nM] |
| --- | --- | --- | --- | --- |
| [2H]C([2H])([2H])C1(S(=O)(=O)NC(=O)[C@@]23C[C@H]2/C=C\CC[C@@H](C)C[C@@H](CC)[C@H](NC(=O)OC(C)(C)C(F)F)C(=O)N2C[C@H](Oc4nccc5cc(OCC)c(F)cc45)C[C@H]2C(=O)N3)CC1 [Compound 5521] | 1.23 | 1.01 to 5 | 0.47 | 0.1 to 0.5 |
| Cc1cn2c(n1)nc(O[C@@H]1C[C@H]3C(=O)N[C@]4(C(=O)NS(=O)(=O)C5(C)CC5)C[C@H]4/C=C\CC[C@@H](C)C[C@@H](C)[C@H](NC(=O)OC(C)(C)C(F)(F)F)C(=O)N3C1)c1cc(Cl)ccc12 [Compound 6135] | – | 1.01 to 5 | – | 0.51 to 1 |
| Cc1cn2c(n1)nc(O[C@@H]1C[C@H]3C(=O)N[C@]4(C(=O)NS(=O)(=O)C5(CF)CC5)C[C@H]4/C=C\CC[C@@H](C)C[C@@H](C)[C@H](NC(=O)OC(C)(C)C(F)(F)F)C(=O)N3C1)c1cc(Cl)ccc12 [Compound 6139] | – | 5.01 to 35 | – | 1.01 to 5 |
| [2H]C([2H])([2H])C1(S(=O)(=O)NC(=O)[C@@]23C[C@H]2/C=C\CC[C@@H](C)C[C@@H](CC)[C@H](NC(=O)OC(C)(C)C(F)F)C(=O)N2C[C@H](Oc4ncc(OC)c5ccccc45)C[C@H]2C(=O)N3)CC1 [Compound 5549] | – | 0.51 to 1 | – | 0.51 to 1 |
| COc1ccc2c(O[C@@H]3C[C@H]4C(=O)N[C@]5(C(=O)NS(=O)(=O)C6(C)CC6)C[C@H]5/C=C\CC[C@@H](C)C[C@@H](C)[C@H](NC(=O)OC(C)(C)C(F)(F)F)C(=O)N4C3)cc(-n3ccc(C(F)(F)F)n3)nc2c1 [Compound 4301] | – | 0.51 to 1 | – | 0.51 to 1 |
| C[C@@H]1CC/C=C\[C@@H]2C[C@@]2(C(=O)NS(=O)(=O)C2(C)CC2)NC(=O)[C@@H]2C[C@@H](Oc3nccc4c5c(ccc34)CCO5)CN2C(=O)[C@@H](NC(=O)OC(C)(C)C(C)(F)F)[C@H](C)C1 [Compound 5495] | – | 1.01 to 5 | – | 0.51 to 1 |
| C[C@@H]1CC/C=C\[C@@H]2C[C@@]2(C(=O)NS(=O)(=O)C2(CF)CC2)NC(=O)[C@@H]2C[C@@H](Oc3nc4nccn4c4ccc(Cl)cc34)CN2C(=O)[C@@H](NC(=O)OC(C)(C)C(F)(F)F)[C@H](C)C1 [Compound 6131] | – | 5.01 to 35 | – | 1.01 to 5 |
| CC[C@@H]1C[C@H](C)CC/C=C\[C@@H]2C[C@@]2(C(=O)NS(=O)(=O)C2CC2)NC(=O)[C@@H]2C[C@@H](Oc3nc4cccnc4nc3C(F)(F)F)CN2C(=O)[C@H]1NC(=O)OC(C)(C)C [Compound 4329, tert-butyl((2R,6S,7R,9R,13aS,14aR,16aS,Z)-14a-((cyclopropylsulfonyl)carbamoyl)-7-ethyl-9-methyl-5,16-dioxo-2-((3-(trifluoromethyl)pyrido[2,3-b]pyrazin-2-yl)oxy)-1,2,3,5,6,7,8,9,10,11,13a,14,14a,15,16,16a-hexadecahydrocyclopropa[e]pyrrolo[1,2-a][1,4]diazacyclopentadecin-6-yl)carbamate] | – | 35 to 145 | – | 35 to 145 |
| CC[C@@H]1C[C@H](C)CC/C=C\[C@@H]2C[C@@]2(C(=O)NS(=O)(=O)C2(C)CC2)NC(=O)[C@@H]2C[C@@H](Oc3nccc4c5c(ccc34)CCO5)CN2C(=O)[C@H]1NC(=O)OC(C)(C)C [Compound 5493, tert-butyl((2R,6S,7R,9R,13aS,14aR,16aS,Z)-2-((2,3-dihydrofuro[2,3-f]isoquinolin-6-yl)oxy)-7-ethyl-9-methyl-14a-(((1-methylcyclopropyl)sulfonyl)carbamoyl)-5,16-dioxo-1,2,3,5,6,7,8,9,10,11,13a,14,14a,15,16,16a-hexadecahydrocyclopropa[e]pyrrolo[1,2-a][1,4]diazacyclopentadecin-6-yl)carbamate] | – | 35 to 145 | – | 5.01 to 35 |
| CC[C@@H]1C[C@H](C)CC/C=C\[C@@H]2C[C@@]2(C(=O)NS(=O)(=O)C2(C)CC2)NC(=O)[C@@H]2C[C@@H](Oc3ncc(C(=O)OC)c4cc(OC)ccc34)CN2C(=O)[C@H]1NC(=O)OC(C)(C)C(F)(F)F [Compound 4287] | – | 1.01 to 5 | – | 1.01 to 5 |
| CC[C@@H]1C[C@H](C)CC/C=C\[C@@H]2C[C@@]2(C(=O)NS(=O)(=O)C2(C)CC2)NC(=O)[C@@H]2C[C@@H](Oc3cc(-n4ccc(C(C)C)n4)nc4cc(OC)ccc34)CN2C(=O)[C@H]1NC(=O)OC(C)(C)C [Compound 4294] | 0.85 | 0.51 to 1 | 0.89 | 0.51 to 1 |
| CC[C@@H]1C[C@H](C)CC/C=C\[C@@H]2C[C@@]2(C(=O)NS(=O)(=O)C2CC2)NC(=O)[C@@H]2C[C@@H](Oc3nc4ncccc4nc3C(F)(F)F)CN2C(=O)[C@H]1NC(=O)OC(C)(C)C [Compound 4330, tert-butyl((2R,6S,7R,9R,13aS,14aR,16aS,Z)-14a-((cyclopropylsulfonyl)carbamoyl)-7-ethyl-9-methyl-5,16-dioxo-2-((2-(trifluoromethyl)pyrido[2,3-b]pyrazin-3-yl)oxy)-1,2,3,5,6,7,8,9,10,11,13a,14,14a,15,16,16a-hexadecahydrocyclopropa[e]pyrrolo[1,2-a][1,4]diazacyclopentadecin-6-yl)carbamate] | – | 5.01 to 35 | – | 5.01 to 35 |
| C[C@@H]1CC/C=C\[C@@H]2C[C@@]2(C(=O)NS(=O)(=O)C2(C)CC2)NC(=O)[C@@H]2C[C@@H](Oc3nc4cc(C(=O)OC(C)(C)C)ccc4nc3C(F)(F)F)CN2C(=O)[C@@H](NC(=O)OC(C)(C)C(C)(F)F)[C@H](C)C1 [Compound 7001, tert-butyl 3-(((2R,6S,7R,9R,13aS,14aR,16aS,Z)-6-((((3,3-difluoro-2-methylbutan-2-yl)oxy)carbonyl)amino)-7,9-dimethyl-14a-(((1-methylcyclopropyl)sulfonyl)carbamoyl)-5,16-dioxo-1,2,3,5,6,7,8,9,10,11,13a,14,14a,15,16,16a-hexadecahydrocyclopropa[e]pyrrolo[1,2-a][1,4]diazacyclopentadecin-2-yl)oxy)-2-(trifluoromethyl)quinoxaline-6-carboxylate] | – | 1.01 to 5 | – | 0.51 to 1 |
| CC[C@@H]1C[C@H](C)CC/C=C\[C@@H]2C[C@@]2(C(=O)NS(=O)(=O)C2(C)CC2)NC(=O)[C@@H]2C[C@@H](Oc3cc(-n4ccc(C(C)C)n4)nc4cc(OC)ccc34)CN2C(=O)[C@H]1NC(=O)OC(C)(C)C(F)(F)F [Compound 4358] | – | 1.01 to 5 | – | 1.01 to 5 |
| C[C@@H]1CC/C=C\[C@@H]2C[C@@]2(C(=O)NS(=O)(=O)C2(C)CC2)NC(=O)[C@@H]2C[C@@H](Oc3nc4nncn4c4ccccc34)CN2C(=O)[C@@H](NC(=O)OC(C)(C)C(F)(F)F)[C@H](C)C1 [Compound 6125] | – | 35 to 145 | – | 35 to 145 |
